Test results reported in ChEMBL document CHEMBL4387774, “Design, synthesis, and evaluation of a water soluble C5-monoketone type curcumin analogue as a potent amyloid β aggregation inhibitor” (Bioorg Med Chem Lett, 2019).
Converted amounts (≈) assume the structure as drawn. The source made the active and inactive calls. The calls are words filed in the database; no cut-off is given here.

Key:
[1] = Aqueous solubility of the compound at 1 mg measured after 12 hrs by shake flask method; type: physicochemical; conditions: water
[2] = Cytotoxicity against rat PC12 cells measured after 24 hrs by WST8/PMS assay; type: cell-based, PC-12
[3] = Antioxidant activity assessed as DPPH radical scavenging activity measured after 30 mins; type: functional
[4] = biological target: Amyloid-beta precursor protein (Homo sapiens) (UniProt P05067); experiment: Inhibition of self-induced amyloid beta 42 (unknown origin) fibril formation at 10 uM incubated for 6 hrs by thioflavin-T fluorescence assay relative to control
Chain of Amyloid-beta precursor protein (Homo sapiens) (P05067 whole entry, the tested form may be a part): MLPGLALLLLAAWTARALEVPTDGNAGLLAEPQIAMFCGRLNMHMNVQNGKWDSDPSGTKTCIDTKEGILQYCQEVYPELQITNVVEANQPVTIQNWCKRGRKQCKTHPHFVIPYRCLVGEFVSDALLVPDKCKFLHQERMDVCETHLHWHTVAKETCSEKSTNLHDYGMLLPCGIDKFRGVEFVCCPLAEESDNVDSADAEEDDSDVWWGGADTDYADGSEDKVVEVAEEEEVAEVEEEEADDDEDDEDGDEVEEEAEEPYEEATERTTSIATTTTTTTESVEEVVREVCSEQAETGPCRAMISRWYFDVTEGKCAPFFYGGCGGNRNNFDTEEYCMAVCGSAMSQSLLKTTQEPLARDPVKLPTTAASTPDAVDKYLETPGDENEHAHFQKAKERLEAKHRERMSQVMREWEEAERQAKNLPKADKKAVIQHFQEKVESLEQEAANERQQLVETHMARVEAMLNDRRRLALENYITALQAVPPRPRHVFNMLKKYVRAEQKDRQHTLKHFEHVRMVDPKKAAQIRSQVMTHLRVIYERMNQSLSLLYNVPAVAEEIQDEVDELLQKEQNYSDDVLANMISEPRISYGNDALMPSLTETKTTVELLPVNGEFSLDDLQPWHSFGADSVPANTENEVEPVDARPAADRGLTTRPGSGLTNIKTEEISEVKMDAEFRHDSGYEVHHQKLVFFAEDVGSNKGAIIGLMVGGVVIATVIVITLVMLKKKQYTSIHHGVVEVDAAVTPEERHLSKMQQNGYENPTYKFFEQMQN

[5] = biological target: Amyloid-beta precursor protein (Homo sapiens) (UniProt P05067); experiment: Inhibition of self-induced amyloid beta 42 (unknown origin) aggregation at 1 uM incubated for 20 hrs by thioflavin-T fluorescence assay relative to control
[6] = biological target: Amyloid-beta precursor protein (Homo sapiens) (UniProt P05067); experiment: Inhibition of self-induced amyloid beta 42 (unknown origin) aggregation at 10 uM incubated for 20 hrs by thioflavin-T fluorescence assay relative to control
[7] = biological target: Amyloid-beta precursor protein (Homo sapiens) (UniProt P05067); experiment: Disaggregation of self-induced amyloid beta 42 (unknown origin) preformed fibrils assessed as appearance of nanorod-like fragment by […] analysis
[8] = biological target: Amyloid-beta precursor protein (Homo sapiens) (UniProt P05067); experiment: Disaggregation of self-induced amyloid beta 42 (unknown origin) preformed fibrils assessed as length of nanorod-like fragment by TEM analysis

solubility thermodynamic at 12 h [1] [µM]	IC50 [3] [µM]	inhibition [4] [%]	inhibition [5] [%]	inhibition [6] [%]	Activity [7]	Activity [8] [nm]	Structure (SMILES)	CC50 at 24 h [2] [µM]
5 (≈ 1.7 µg/mL)	57	95 to 100	99	–	–	–	O=C(/C=C/c1cc(O)ccc1O)CC(=O)/C=C/c1cc(O)ccc1O	24
4.4 (≈ 1.43 µg/mL)	48	95 to 100	80	–	–	–	O=C(/C=C/c1ccccc1O)CC(=O)/C=C/c1cc(O)ccc1O	38
16 (≈ 4.36 µg/mL)	39	–	85	–	–	–	O=C(/C=C/c1ccc(O)c(O)c1)c1cc(O)ccc1O	80
184 (≈ 51.9 µg/mL)	48	–	90	–	–	–	O=C(/C=C/c1cccc(O)c1)/C=C/c1cccc(O)c1O	46
3.8 (≈ 1.29 µg/mL)	19	95 to 100	–	98	–	–	O=C(/C=C/c1ccc(O)c(O)c1)CC(=O)/C=C/c1cccc(O)c1O	16
5.3 (≈ 1.8 µg/mL)	30	95 to 100	93	–	–	–	O=C(/C=C/c1cccc(O)c1O)CC(=O)/C=C/c1cccc(O)c1O	39
60 (≈ 16.9 µg/mL)	71	–	100	–	–	–	O=C(/C=C/c1cccc(O)c1)/C=C/c1ccc(O)c(O)c1	> 100
8.2 (≈ 2.66 µg/mL)	29	95 to 100	–	100	–	–	O=C(/C=C/c1cccc(O)c1)CC(=O)/C=C/c1cccc(O)c1O	38
271 (≈ 80.8 µg/mL)	13	–	100	–	Active	50 to 500	O=C(/C=C/c1cc(O)ccc1O)/C=C/c1cccc(O)c1O	59
100 (≈ 34 µg/mL)	27	95 to 100	100	–	–	–	O=C(/C=C/c1cc(O)ccc1O)CC(=O)/C=C/c1cccc(O)c1O	53
111 (≈ 31.3 µg/mL)	62	–	100	–	–	–	O=C(/C=C/c1ccc(O)c(O)c1)/C=C/c1ccccc1O	34
77 (≈ 23 µg/mL)	16	–	90	–	–	–	O=C(/C=C/c1ccccc1O)CC(=O)c1ccc(O)c(O)c1	> 90
32 (≈ 10.1 µg/mL)	28	–	100	–	–	–	O=C(/C=C/c1cc(O)ccc1O)CC(=O)c1cccc(O)c1O	63
5.8 (≈ 1.88 µg/mL)	88	95 to 100	56	–	–	–	O=C(/C=C/c1cccc(O)c1)CC(=O)/C=C/c1cc(O)ccc1O	15
120 (≈ 33.9 µg/mL)	40	–	96	–	–	–	O=C(/C=C/c1ccc(O)cc1)/C=C/c1cccc(O)c1O	12
0.19 (≈ 0.07 µg/mL)	45	–	–	–	–	–	COc1cc(/C=C/C(=O)CC(=O)/C=C/c2ccc(O)c(OC)c2)ccc1O [CURCUMIN]	42
54 (≈ 18.4 µg/mL)	60	95 to 100	57	–	–	–	O=C(/C=C/c1ccc(O)c(O)c1)CC(=O)/C=C/c1cc(O)ccc1O	51
151 (≈ 42.6 µg/mL)	99	–	98	–	–	–	O=C(/C=C/c1ccccc1O)/C=C/c1cccc(O)c1O	54
19 (≈ 5.36 µg/mL)	24	–	75	–	–	–	O=C(/C=C/c1ccc(O)cc1)/C=C/c1ccc(O)c(O)c1	12
0.57 (≈ 0.185 µg/mL)	41	95 to 100	53	–	–	–	O=C(/C=C/c1ccc(O)cc1)CC(=O)/C=C/c1cc(O)ccc1O	21
31 (≈ 10.1 µg/mL)	–	–	62	–	–	–	O=C(/C=C(O)/C=C/c1ccccc1O)/C=C/c1ccc(O)c(O)c1	–
25 (≈ 7.46 µg/mL)	10	–	85	–	–	–	O=C(/C=C/c1cccc(O)c1)CC(=O)c1ccc(O)c(O)c1	> 100
123 (≈ 36.7 µg/mL)	25	–	100	–	–	–	O=C(/C=C/c1ccc(O)c(O)c1)/C=C/c1cc(O)ccc1O	39
47 (≈ 14.8 µg/mL)	82	–	98	–	–	–	O=C(/C=C/c1cc(O)ccc1O)CC(=O)c1ccc(O)c(O)c1	> 100
11 (≈ 3.57 µg/mL)	23	95 to 100	92	–	–	–	O=C(/C=C/c1ccccc1O)CC(=O)/C=C/c1cccc(O)c1O	34
33 (≈ 8.98 µg/mL)	48	–	98	–	–	–	O=C(/C=C/c1cccc(O)c1O)c1cc(O)ccc1O	89
4.8 (≈ 1.56 µg/mL)	27	95 to 100	–	100	–	–	O=C(/C=C/c1ccc(O)cc1)CC(=O)/C=C/c1cccc(O)c1O	8.5
